Results as given in patent publication US12453696B2, “Active principle comprising a particular extract of Punica granatum and uses for preventing and/or treating acne” (priority 2020, dated 2025).

Test system: C. acnes
Assay: Antibacterial activity: inhibition diameter of growth of C. acnes
Assay type: cell-based, Cutibacterium acnes
Conditions: for Inhibition diameter (cm): C. acnes
Description: In addition, the antibacterial activity (C. acnes) of these three products was compared according to the method described later in the present application. The inhibition diameter is proportional to the antibacterial efficacy of the product tested.
The results concerning the antibacterial effect of the active ingredient according to the invention compared to those of punicalagin, the main compound of the polyphenols present in the fruit of the pomegranate, are presented in Table 6.

`O=C1O[C@H]2[C@@H]3OC(=O)c4cc(O)c(O)c(O)c4-c4c(O)c(O)c5oc(=O)c6c(c(O)c(O)c7oc(=O)c4c5c76)-c4c(cc(O)c(O)c4O)C(=O)OC[C@H]3OC(O)[C@@H]2OC(=O)c2cc(O)c(O)c(O)c2-c2c1cc(O)c(O)c2O` (mixture of isomers) [Punicalagin] was tested, and the “antibacterial activity on growth of C. acnes (in words)” value was “has an antibacterial effect on the growth of C. acnes”, the “Inhibition diameter (cm)” value (Deposit 15 μl) was 1.1 ± 0.1 cm and the “Inhibition diameter (cm)” value (Deposit 30 μl) was 1.4 ± 0.1 cm.
